Experimental data taken from ChEMBL document CHEMBL3525940, “The tissue-specific toxicity of methimazole in the mouse olfactory mucosa is partly mediated through target-tissue metabolic activation by CYP2A5” (Drug Metab Dispos, 2011).

Assays:
[1] = tested on: Mus musculus; assay: Toxicity in wild-type littermates mouse olfactory mucosa assessed as epithelium loss measured as intact olfactory epithelium at 50 mg/kg, ip by hematoxylin/eosin staining; format: organism-based; set-up: dose 50 mg/kg, route intraperitoneal; settings: in vivo
[2] = tested on: Mus musculus; assay: Toxicity in wild-type mouse olfactory mucosa assessed as epithelium loss at 50 mg/kg, ip by hematoxylin/eosin staining; format: organism-based; set-up: dose 50 mg/kg, route intraperitoneal; settings: in vivo
[3] = tested on: Mus musculus; assay: Toxicity in Cyp2a5-null B6 mouse olfactory mucosa assessed as abnormal nasal cavity and epithelium at 50 mg/kg, ip by hematoxylin/eosin staining; format: organism-based; set-up: dose 50 mg/kg, route intraperitoneal; settings: in vivo
[4] = tested on: Mus musculus; assay: Toxicity in wild-type mouse olfactory mucosa assessed as detached epithelium from basement membrane, fractured and disorganized at 50 mg/kg, ip by hematoxylin/eosin staining; format: organism-based; set-up: dose 50 mg/kg, route intraperitoneal; settings: in vivo
[5] = tested on: Mus musculus; assay: Toxicity in wild-type mouse olfactory mucosa assessed as abnormal nasal cavity and epithelium at 50 mg/kg, ip by hematoxylin/eosin staining; format: organism-based; set-up: dose 50 mg/kg, route intraperitoneal; settings: in vivo
[6] = tested on: Mus musculus; assay: Toxicity in wild-type B6 mouse olfactory mucosa assessed as depletion of nonprotein sulfhydryl at 50 mg/kg, ip at 2 hrs relative to vehicle treated control; format: organism-based; set-up: dose 50 mg/kg, route intraperitoneal; settings: in vivo
[7] = tested on: Mus musculus; assay: Toxicity in Cyp2a5-null B6 mouse olfactory mucosa assessed as epithelium loss measured as intact olfactory epithelium at 50 mg/kg, ip by hematoxylin/eosin staining; format: organism-based; set-up: dose 50 mg/kg, route intraperitoneal; settings: in vivo
[8] = tested on: Mus musculus; assay: Toxicity in wild-type B6 mouse olfactory mucosa assessed as epithelium loss measured as intact olfactory epithelium at 50 mg/kg, ip by hematoxylin/eosin staining; format: organism-based; set-up: dose 50 mg/kg, route intraperitoneal; settings: in vivo
[9] = tested on: Mus musculus; assay: Toxicity in Cyp2a5-null B6 mouse olfactory mucosa assessed as depletion of nonprotein sulfhydryl at 50 mg/kg, ip at 2 hrs relative to vehicle treated control; format: organism-based; set-up: dose 50 mg/kg, route intraperitoneal; settings: in vivo
[10] = Drug metabolism in wild-type mouse olfactory mucosa microsomes assessed as rate of disappearance of compound at 5 uM after 15 mins; format: ADME; settings: read-out: Drug metabolism
[11] = tested on: Mus musculus; assay: Toxicity in Cyp2a5-null B6 mouse olfactory mucosa assessed as attached epithelium from basement membrane at 50 mg/kg, ip by hematoxylin/eosin staining; format: organism-based; set-up: dose 50 mg/kg, route intraperitoneal; settings: in vivo
[12] = Drug metabolism in Cyp2a5-null B6 mouse olfactory mucosa microsomes assessed as rate of disappearance of compound at 5 uM after 15 mins; format: ADME; settings: B6 (C57BL/6), read-out: Drug metabolism

## Cn1cc[nH]c1=S [METHIMAZOLE]
[1]
  Activity: 39.8%
[2]
  Activity: Toxic
[3]
  Activity: Non-toxic
[4]
  Activity: Toxic
[5]
  Activity: Toxic
[6]
  Activity: 51.8%
[7]
  Activity: 60.9%
[8]
  Activity: 14.6%
[9]
  Activity: 41.5%
[10]
  metabolised at 0.25 h, 5 µM: 58.7%
[11]
  Activity: Non-toxic
[12]
  metabolised at 0.25 h, 5 µM: 28.7%
